Source: patent publication US6432993B1, “Substituted fused heterocyclic compound” (Sankyo Company, Limited, priority 1997, dated 2002)
Converted amounts (≈) assume the structure as drawn. Structures can show the parent of a compound that is named as a salt.

Experiments:
[1] = biological target: T1, 5-lipoxygenase (Cavia porcellus, UniProt A0A286X958); test: 5-Lipoxygenase inhibitory action (5-HETE formation, guinea pig polymorphonuclear leukocyte enzyme); type: biochemical; settings: 25° C. 5 minutes, 5-HETE by HPLC, read-out: IC50 (50% inhibition concentration against 5-lipoxygenase) (converted)
T1 sequence (A0A286X958 1-674): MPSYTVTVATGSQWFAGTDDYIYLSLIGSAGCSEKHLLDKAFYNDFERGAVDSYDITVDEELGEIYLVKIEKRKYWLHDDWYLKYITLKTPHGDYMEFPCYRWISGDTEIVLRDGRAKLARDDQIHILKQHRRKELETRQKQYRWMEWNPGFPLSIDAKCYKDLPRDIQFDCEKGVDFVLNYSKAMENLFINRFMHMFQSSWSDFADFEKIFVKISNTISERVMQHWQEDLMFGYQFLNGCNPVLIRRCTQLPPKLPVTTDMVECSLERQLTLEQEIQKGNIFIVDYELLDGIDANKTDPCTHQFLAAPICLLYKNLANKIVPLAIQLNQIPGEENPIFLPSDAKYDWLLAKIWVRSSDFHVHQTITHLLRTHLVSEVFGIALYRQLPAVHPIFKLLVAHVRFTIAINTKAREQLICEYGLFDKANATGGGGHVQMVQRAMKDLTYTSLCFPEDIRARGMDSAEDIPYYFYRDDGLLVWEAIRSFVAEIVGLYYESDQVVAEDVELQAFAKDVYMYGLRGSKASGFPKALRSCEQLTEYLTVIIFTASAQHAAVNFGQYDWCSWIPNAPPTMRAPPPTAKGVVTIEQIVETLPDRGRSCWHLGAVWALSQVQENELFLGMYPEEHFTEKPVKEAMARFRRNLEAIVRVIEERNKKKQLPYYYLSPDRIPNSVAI
Procedure: 5-Lipoxygenase Inhibitory Action
Into 5 μl of a solution of the test compound in dimethylsulfoxide, 750 μl of a 1/15M phosphate buffer (pH 7.4) which was prepared by dissolving a wrapper of phosphate buffer powder (Yatron) in 10 ml of water, 40 μl of a 30 mM aqueous calcium chloride solution, 50 μl of a 20 mM aqueous GSH (glutathione, reduced form) solution, 50 μl of a 40 mM aqueous ATP (adenosine-5-triphosphate) solution and 100 μl of guinea pig polymorphonuclear leukocyte enzyme were added, followed by stirring at 25° C. for 5 minutes. To initiate the reaction, 5 μl of […] (10 mg/ml ethanol) were added to said mixture and the mixture was stirred at 25° C. for 5 minutes. 50 μl of 2N hydrochloric acid were added to the reaction mixture to terminate the reaction. 2.0 ml of ethyl acetate containing an internal standard substance (internal standard substance: 2 μg/ml of isoamyl paraben) were then added to the reaction mixture. The resulting mixture was extracted for 1 minute by a mixer, followed by centrifugal separation at 3000 rpm for 5 minutes. The ethyl acetate layer was separated, evaporated to dryness under reduced pressure and then dissolved in 200 μl of acetonitrile. By high-performance liquid chromatography, the amount of 5-HETE formed was determined. From the determination of 5-HETE of the control without the test compounds and that of the test compounds, an inhibition rate (%) was found and the 50% inhibition concentration of the test compounds against 5-lipoxygenase was determined.

[2] = test system: lipid peroxide production, rat hepatic microsome; test: Anti-lipid-peroxide action: inhibition of lipid peroxide production in rat hepatic microsome; type: biochemical; settings: Wister rat hepatic microsome, ferrous sulfate/cysteine, 37° C. 30 minutes, thiobarbituric acid absorbance 535 nm
Procedure: Anti-lipid-peroxide Action
The inhibitory effect of the invention compound against the production of lipid peroxide was conducted using rat hepatic microsome.
To 400 μl of a 1:2 mixture of a buffer [a 0.1M aqueous tris(hydroxymethyl)aminomethane solution adjusted to pH 7.4 by hydrochloric acid] and a 0.15M aqueous potassium chloride solution were added 5 μl of a solution of a predetermined concentration of the test compound in dimethyl sulfoxide, and 100 μl of hepatic microsome prepared from Wister rat (10 week old), followed by stirring at 37° C. for 5 minutes. To initiate the reaction of said mixture, 10 μl of a 1:1 mixed solution of a 0.5 mM aqueous solution of ferrous sulfate 7 hydrate and a 50 mM aqueous cysteine solution was added and the resulting mixture was stirred at 37° C. for 30 minutes. 1 ml of a 10% aqueous solution of trichloroacetic acid was added to the reaction mixture to terminate the reaction. The reaction mixture was centrifuged at 3000 rpm at 5° C. for 10 minutes and the supernatant was separated. To 1.0 ml of the supernatant, 1.0 ml of 50% aqueous acetic acid containing 0.67% of thiobarbituric acid was added and the mixture was boiled at 100° C. for 15 minutes. After the resulting mixture was allowed to stand at room temperature for 15 minutes, the absorbance at the wavelength of 535 nm was measured. From the absorbance of the control measured without the test compound and that of the test compounds of a predetermined concentration, an inhibition rate (%) was determined and the 50% inhibition concentration of the test compound against lipid peroxide was determined.

[3] = test system: KK mice which developed diabetes; test: Hypoglycemic action in diabetic KK mice; type: in vivo; settings: powdery food containing 0.01% test compound for three days, plasma glucose vs control; for inhibition in vivo at 0.01 % in diet: Mus musculus, po, 72 h, read-out: Blood sugar lowering rate (%)
Procedure: The blood sample was collected from the caudal vein of each of KK mice (4-5 month old) which developed diabetes and its blood sugar level was measured. The mice were then classified into groups (4 mice per group) so that they would be equal in the average of the blood sugar levels of the mice. For three days, powdery food (F-1, produced by Funabashi Farm) adjusted to contain the test compound in an amount of 0.01% was administered to mice. The mouse group to which the test compound was administered refers to “the medicine administered group”, while that to which the powdery food free of the test compound was administered refers to “the control”. After three days, the blood sample was collected from the caudal vein of each of the mice and the glucose concentration in the plasma obtained by centrifugal separation was measured by a glucose analyzer (“Glucoroder”, A&T Inc.). The blood-sugar lowering rate was calculated from the following equation:
Blood sugar lowering rate (%)=(average blood sugar level of the control−average blood sugar level of the medicine administered group)×100/the blood sugar level of the control

SMILES: Cc1cc(Oc2ccc3nc(COc4ccc(CC5SC(=O)NC5=O)cc4)n(C)c3c2)c(C)c(C)c1O (stereo not shown) [Example 2-2a, 5-{4-[6-(4-Hydroxy-2,3,5-trimethylphenoxy)-1-methyl-1H-benzimidazol-2-ylmethoxy]benzyl}thiazolidine-2,4-dione]
- IC50 [1]: 193 nM
- IC50 (50% inhibition concentration against lipid peroxide) [2]: 0.54 µg/mL (≈ 1.04 µM)

SMILES: Cc1cc(Oc2ccc3nc(COc4ccc(CC5SC(=O)NC5=O)cc4)n(C)c3n2)c(C)c(C)c1O (stereo not shown) [Example 1-2a, 5-{4-[5-(4-Hydroxy-2,3,5-trimethylphenoxy)-3-methyl-3H-imidazo[4,5-b]pyridin-2-ylmethoxy]benzyl}thiazolidine-2,4-dione]
- IC50 [1]: 1140 nM
- IC50 (50% inhibition concentration against lipid peroxide) [2]: 0.97 µg/mL (≈ 1.87 µM)

SMILES: Cc1cc(Oc2ccc3nc(COc4ccc(CC5SC(=O)NC5=O)cc4)n(C)c3c2)c(Cl)c(C)c1O.Cl (stereo not shown) [Example 5b, 5-{4-[6-(2-Chloro-4-hydroxy-3,5-dimethylphenoxy)-1-methyl-1H-benzimidazol-2-ylmethoxy]benzyl}thiazolidine-2,4-dione hydrochloride]
- IC50 [1]: 923 nM
- IC50 (50% inhibition concentration against lipid peroxide) [2]: 1.3 µg/mL

SMILES: Cn1c(COc2ccc(CC3SC(=O)NC3=O)cc2)nc2ccc(Oc3ccc(-n4ccnc4)cc3)cc21 (stereo not shown) [Example 19-2, 5-{4-(6-[4-(Imidazole-1-yl)phenoxy]-1-methyl-1H-benzimidazole-2-ylmethoxy)benzyl}thiazolidine-2,4-dione dihydrochloride]
- inhibition in vivo at 0.01 % in diet [3]: 66.8%

SMILES: Cc1cc(Oc2ccc3nc(COc4ccc(CC5SC(=O)NC5=O)cc4)n(C)c3c2)cc(C)c1N.Cl.Cl (stereo not shown) [Example 8-2b, 5-{4-[6-(4-Amino-3,5-dimethylphenoxy)-1-methyl-1H-benzimidazol-2-ylmethoxy]benzyl}thiazolidine-2,4-dione dihydrochloride]
- IC50 (50% inhibition concentration against lipid peroxide) [2]: 3.2 µg/mL

SMILES: Cn1c(COc2ccc(CC3SC(=O)NC3=O)cc2)nc2ccc(Oc3ccc(C#N)cc3)cc21 (stereo not shown) [Example 40, 5-{4-[6-(4-Cyanophenoxy)-1-methyl-1H-benzimidazole-2-ylmethoxy]benzyl}thiazolidine-2,4-dione hydrochloride]
- inhibition in vivo at 0.01 % in diet [3]: 66.4%

SMILES: Cc1cc(Oc2ccc3nc(COc4ccc(CC5SC(=O)NC5=O)cc4)n(C)c3n2)c(C)c(C)c1O (stereo not shown) [Example 1-2b, 5-{4-[5-(4-Hydroxy-2,3,5-trimethylphenoxy)-3-methyl-3H-imidazo[4,5-b]pyridin-2-ylmethoxy]benzyl}thiazolidine-2,4-dione hydrochloride]
- inhibition in vivo at 0.01 % in diet [3]: 48.1%

SMILES: Cl.Cn1c(COc2ccc(CC3SC(=O)NC3=O)cc2)nc2ccc(Sc3cc(C(C)(C)C)c(O)c(C(C)(C)C)c3)cc21.Cn1c(COc2ccc(CC3SC(=O)NC3=O)cc2)nc2ccc(Sc3cc(C(C)(C)C)c(O)c(C(C)(C)C)c3)cc21 (stereo not shown) [Example 7-2a, 5-{4-[6-(3,5-Di-t-butyl-4-hydroxyphenylthio)-1-methyl-1H-benzimidazol-2-ylmethoxy]benzyl}thiazolidine-2,4-dione 1/2 hydrochloride]
- Blood sugar lowering rate (%) [3]: 71.7%
- IC50 (50% inhibition concentration against lipid peroxide) [2]: 0.65 µg/mL

SMILES: Cn1c(COc2ccc(CC3SC(=O)NC3=O)cc2)nc2ccc(Oc3ccc(O)cc3)cc21 (stereo not shown) [Example 3-2, 5-{4-[6-(4-Hydroxyphenoxy)-1-methyl-1H-benzimidazol-2-ylmethoxy]benzyl}thiazolidine-2,4-dione]
- inhibition in vivo at 0.01 % in diet [3]: 60.1%

SMILES: Cn1c(COc2ccc(CC3SC(=O)NC3=O)cc2)nc2ccc(Oc3ccc(NC(=O)c4cccnc4)cc3)cc21 (stereo not shown) [Example 51, 5-{4-[6-(4-Nicotinoylaminophenoxy)-1-methyl-1H-benzimidazole-2-ylmethoxy]benzyl}thiazolidine-2,4-dione]
- inhibition in vivo at 0.01 % in diet [3]: 63.6%

SMILES: Cn1c(COc2ccc(CC3SC(=O)NC3=O)cc2)nc2ccc(Oc3ccccn3)cc21 (stereo not shown) [Example 6-2, 5-{4-[6-(Pyridin-2-yloxy)-1-methyl-1H-benzimidazol-2-ylmethoxy]benzyl}thiazolidine-2,4-dione]
- inhibition in vivo at 0.01 % in diet [3]: 62.6%

SMILES: Cc1cc(Oc2ccc3nc(COc4ccc(CC5SC(=O)NC5=O)cc4)n(C)c3c2)c(C)c(C)c1O (stereo not shown) [Example 2-2b, 5-{4-[6-(4-Hydroxy-2,3,5-trimethylphenoxy)-1-methyl-1H-benzimidazol-2-ylmethoxy]benzyl}thiazolidine-2,4-dione hydrochloride]
- inhibition in vivo at 0.01 % in diet [3]: 49.2%

SMILES: Cc1ccc(Sc2ccc3nc(COc4ccc(CC5SC(=O)NC5=O)cc4)n(C)c3c2)cc1 (stereo not shown) [Example 34-2b, 5-{4-[1-Methyl-6-(4-methylthiophenoxy)-1H-benzimidazole-2-ylmethoxy]benzyl}thiazolidine-2,4-dione hydrochloride]
- inhibition in vivo at 0.01 % in diet [3]: 71.2%

SMILES: Cc1cc(Oc2ccc3nc(COc4ccc(CC5SC(=O)NC5=O)cc4)n(C)c3c2)cc(C)c1O (stereo not shown) [Example 4-2a, 5-{4-[6-(4-Hydroxy-3,5-dimethylphenoxy)-1-methyl-1H-benzimidazol-2-ylmethoxy]benzyl}thiazolidine-2,4-dione]
- inhibition in vivo at 0.01 % in diet [3]: 67.5%
- IC50 [1]: 397 nM
- IC50 (50% inhibition concentration against lipid peroxide) [2]: 0.83 µg/mL (≈ 1.65 µM)

SMILES: Cn1c(COc2ccc(CC3SC(=O)NC3=O)cc2)nc2ccc(Sc3ccccn3)cc21 (stereo not shown) [Example 13-2b, 5-{4-[1-Methyl-6-(pyridin-2-ylthio)-1H-benzimidazole-2-ylmethoxy]benzyl}thiazolidine-2,4-dione dihydrochloride]
- inhibition in vivo at 0.01 % in diet [3]: 68.1%

SMILES: Cc1cc(O)ccc1Oc1ccc2nc(COc3ccc(CC4SC(=O)NC4=O)cc3)n(C)c2c1.Cl (stereo not shown)
- melting point: 165 to 168 °C
